Measurements published in ChEMBL document CHEMBL5108059, “Discovery of 2-Methyl-2-(4-(2-methyl-8-(1H-pyrrolo[2,3-b]pyridin-6-yl)-1H-naphtho[1,2-d]imidazol-1-yl)phenyl)propanenitrile as a Novel PI3K/mTOR Inhibitor with Enhanced Antitumor Efficacy In Vitro and In Vivo” (J Med Chem, 2022).

Columns and labels:
[1] = tested on: NCI-H446; experiment: Antiproliferative activity against PTEN-null human NCI-H446 cells assessed as inhibition of cell growth incubated for 48 to 72 hrs by MTT assay; type: functional, cell-based
[2] = tested on: SW-620; experiment: Antiproliferative activity against human SW620 cells assessed as inhibition of cell growth incubated for 48 to 72 hrs by MTT assay; type: functional, cell-based
[3] = tested on: HCT-15; experiment: Antiproliferative activity against human HCT-15 cells with PIK3CA mutation assessed as inhibition of cell growth incubated for 48 to 72 hrs by MTT assay; type: functional, cell-based
[4] = biological target: Phosphatidylinositol 4,5-bisphosphate 3-kinase catalytic subunit alpha isoform (Homo sapiens, UniProt P42336); experiment: Inhibition of PI3Kalpha (unknown origin) using PIP2 as substrate incubated for 1 hr in presence of ATP by Kinase Glo luminescence assay
[5] = tested on: NCI-H3122; experiment: Antiproliferative activity against human NCI-H3122 cells assessed as inhibition of cell growth incubated for 48 to 72 hrs by MTT assay; type: functional, cell-based
[6] = tested on: HT-29; experiment: Antiproliferative activity against human HT-29 cells with PIK3CA mutation assessed as inhibition of cell growth incubated for 48 to 72 hrs by MTT assay; type: functional, cell-based
[7] = biological target: T1, Phosphatidylinositol 4,5-bisphosphate 3-kinase catalytic subunit delta isoform (Homo sapiens, UniProt O00329); experiment: Inhibition of PI3Kdelta (unknown origin) using PIP2 as substrate incubated for 2 hrs in presence of ATP by Kinase Glo luminescence assay
T1 sequence (O00329 whole entry): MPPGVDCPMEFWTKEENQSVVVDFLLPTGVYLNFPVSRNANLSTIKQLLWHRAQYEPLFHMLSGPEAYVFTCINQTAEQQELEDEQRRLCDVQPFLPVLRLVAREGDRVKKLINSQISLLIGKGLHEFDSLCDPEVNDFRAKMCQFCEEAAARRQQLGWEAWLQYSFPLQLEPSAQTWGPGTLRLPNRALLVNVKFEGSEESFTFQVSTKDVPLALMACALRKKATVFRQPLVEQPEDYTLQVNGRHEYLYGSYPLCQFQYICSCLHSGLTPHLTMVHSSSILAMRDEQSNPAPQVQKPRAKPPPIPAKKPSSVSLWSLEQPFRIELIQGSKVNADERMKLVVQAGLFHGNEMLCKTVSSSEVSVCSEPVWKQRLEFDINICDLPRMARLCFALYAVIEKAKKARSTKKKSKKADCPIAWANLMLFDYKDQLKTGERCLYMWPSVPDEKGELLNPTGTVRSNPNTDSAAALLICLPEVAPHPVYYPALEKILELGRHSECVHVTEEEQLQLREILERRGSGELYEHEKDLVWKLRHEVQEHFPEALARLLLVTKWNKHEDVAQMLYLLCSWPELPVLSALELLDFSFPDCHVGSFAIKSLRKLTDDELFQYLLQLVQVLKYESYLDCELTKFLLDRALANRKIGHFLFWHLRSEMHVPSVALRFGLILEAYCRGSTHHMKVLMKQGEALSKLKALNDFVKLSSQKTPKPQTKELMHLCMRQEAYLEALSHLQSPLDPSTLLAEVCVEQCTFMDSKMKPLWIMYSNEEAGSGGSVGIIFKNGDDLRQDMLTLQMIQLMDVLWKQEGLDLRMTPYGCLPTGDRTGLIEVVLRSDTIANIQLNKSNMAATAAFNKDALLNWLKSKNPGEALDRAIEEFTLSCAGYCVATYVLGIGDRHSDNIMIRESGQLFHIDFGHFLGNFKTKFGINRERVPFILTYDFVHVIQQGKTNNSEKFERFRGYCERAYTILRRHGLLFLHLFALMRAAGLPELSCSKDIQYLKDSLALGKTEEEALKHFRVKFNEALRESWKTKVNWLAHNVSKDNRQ

[8] = tested on: HeLa; experiment: Antiproliferative activity against human HeLa cells assessed as inhibition of cell growth incubated for 48 to 72 hrs by MTT assay; type: functional, cell-based
[9] = biological target: Serine/threonine-protein kinase mTOR (Homo sapiens, UniProt P42345); experiment: Inhibition of N-terminal FLAG-tagged recombinant human mTOR (1362 to end residue) using ULight-4EBP1 peptide as substrate incubated for 30 mins in presence of ATP by Lance ultra assay

Phosphatidylinositol 4,5-bisphosphate 3-kinase catalytic subunit alpha isoform, sequence (P42336 whole entry, canonical isoform): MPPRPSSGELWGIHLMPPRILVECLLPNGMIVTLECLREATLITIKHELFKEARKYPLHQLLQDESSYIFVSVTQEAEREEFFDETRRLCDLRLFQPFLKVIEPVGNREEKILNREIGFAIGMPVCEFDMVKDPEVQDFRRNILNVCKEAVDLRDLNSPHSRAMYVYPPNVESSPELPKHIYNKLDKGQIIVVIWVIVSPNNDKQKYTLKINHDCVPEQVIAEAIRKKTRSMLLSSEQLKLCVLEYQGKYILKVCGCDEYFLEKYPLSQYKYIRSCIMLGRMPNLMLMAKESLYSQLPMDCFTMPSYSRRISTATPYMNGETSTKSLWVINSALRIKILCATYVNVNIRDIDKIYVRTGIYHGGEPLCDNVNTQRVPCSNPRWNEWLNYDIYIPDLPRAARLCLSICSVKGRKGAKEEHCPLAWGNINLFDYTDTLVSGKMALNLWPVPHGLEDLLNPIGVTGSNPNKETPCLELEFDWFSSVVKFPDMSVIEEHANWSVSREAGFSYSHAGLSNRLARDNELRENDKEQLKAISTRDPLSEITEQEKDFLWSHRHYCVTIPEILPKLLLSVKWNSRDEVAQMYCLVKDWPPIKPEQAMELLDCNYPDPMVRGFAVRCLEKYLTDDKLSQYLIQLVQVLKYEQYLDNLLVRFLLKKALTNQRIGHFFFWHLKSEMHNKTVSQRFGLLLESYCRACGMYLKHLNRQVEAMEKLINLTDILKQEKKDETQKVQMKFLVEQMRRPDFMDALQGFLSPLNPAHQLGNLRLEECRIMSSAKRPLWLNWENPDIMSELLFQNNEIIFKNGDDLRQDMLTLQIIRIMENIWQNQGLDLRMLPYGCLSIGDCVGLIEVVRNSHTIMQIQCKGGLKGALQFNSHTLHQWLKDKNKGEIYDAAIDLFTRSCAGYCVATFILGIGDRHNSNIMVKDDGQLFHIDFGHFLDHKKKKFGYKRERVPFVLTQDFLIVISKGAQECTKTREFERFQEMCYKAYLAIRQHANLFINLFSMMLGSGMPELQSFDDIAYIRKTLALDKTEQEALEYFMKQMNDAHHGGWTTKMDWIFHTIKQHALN

Row | SMILES | IC50 [1] | IC50 [2] | IC50 [3] | IC50 [4] | IC50 [5] | IC50 [6] | IC50 [7] | IC50 [8] | IC50 [9]
1 | Cc1nc2cnc3ccc(-c4cnc5[nH]ccc5c4)cc3c2n1-c1ccccc1 | 4510 nM | 2910 nM | 1940 nM | 41 nM | 5610 nM | 2310 nM | 32.3 nM | 3640 nM | 73.9 nM
2 | Cc1nc2cnc3ccc(-c4cnc5[nH]ccc5c4)cc3c2n1C1CC1 |  |  |  | 501 nM |  |  | 814 nM |  | > 1000 nM
3 | Cc1nc2cnc3ccc(-c4ccc5ccccc5c4)cc3c2n1-c1ccc(F)cc1 | 12200 nM | 13700 nM | 9750 nM | 148 nM | 8950 nM | 3140 nM | 202 nM | 16800 nM | 190 nM
4 | Cc1ccc(-c2ccc3ncc4nc(C)n(-c5ccc(F)cc5)c4c3c2)cc1 |  |  |  | 357 nM |  |  | 579 nM |  | > 1000 nM
5 | Cc1nc2cnc3ccc(-c4ccc(N)nc4)cc3c2n1-c1ccc(F)cc1 | 3610 nM | 2130 nM | 2020 nM | 51.3 nM | 4750 nM | 1210 nM | 40.7 nM | 1710 nM | 93.8 nM
6 | Cc1nc2cnc3ccc(-c4cnc5[nH]ccc5c4)cc3c2n1Cc1ccccc1 | 7590 nM | 4160 nM | 3060 nM | 117 nM | 6710 nM | 2980 nM | 106 nM | 2720 nM | 263 nM
7 | Cc1noc(C)c1-c1ccc2ncc3nc(C)n(-c4ccc(F)cc4)c3c2c1 |  |  |  | > 1000 nM |  |  | 852 nM |  | > 1000 nM
8 | Cc1nc2cnc3ccc(-c4cnc5[nH]ccc5c4)cc3c2n1[C@H](C)c1ccccc1 | 2780 nM | 1650 nM | 1430 nM | 79.6 nM | 1960 nM | 1870 nM | 164 nM | 2350 nM | 102 nM
9 | COC(=O)c1ccc(-c2ccc3ncc4nc(C)n(-c5ccc(F)cc5)c4c3c2)cc1 | > 20000 nM | > 20000 nM | > 20000 nM | 251 nM | > 20000 nM | 18700 nM | 336 nM | 19800 nM | 206 nM
10 | Cc1nc2cnc3ccc(-c4cnn(C)c4)cc3c2n1-c1ccc(F)cc1 |  |  |  | 672 nM |  |  | > 1000 nM |  | > 1000 nM
11 | Cc1nc2cnc3ccc(-c4cnc(N)nc4)cc3c2n1-c1ccc(F)cc1 | 4160 nM | 1930 nM | 1970 nM | 36.7 nM | 5390 nM | 1320 nM | 30.4 nM | 2710 nM | 62.1 nM
12 | Cc1nc2cnc3ccc(-c4cnc5[nH]ccc5c4)cc3c2n1C |  |  |  | 472 nM |  |  | > 1000 nM |  | 679 nM
13 | Cc1nc2cnc3ccc(-c4cnc5[nH]ccc5c4)cc3c2n1-c1ccc(F)cc1 | 1650 nM | 1280 nM | 1130 nM | 21.5 nM | 2050 nM | 1250 nM | 28.9 nM | 1820 nM | 38.7 nM
14 | Cc1nc2cnc3ccc(-c4ccc(C(F)(F)F)cc4)cc3c2n1-c1ccc(F)cc1 |  |  |  | 507 nM |  |  | > 1000 nM |  | > 1000 nM
15 | Cc1nc2cnc3ccc(-c4cnc5[nH]ccc5c4)cc3c2n1-c1ccc(C#N)cc1 | 9710 nM | 3940 nM | 1410 nM | 62.5 nM | 7730 nM | 1320 nM | 96.4 nM | 5680 nM | 123 nM
16 | Oc1cccc(-c2nc(N3CCOCC3)c3oc4ncccc4c3n2)c1 [PI-103] | 2160 nM | 1070 nM | 1760 nM |  | 2510 nM | 1310 nM |  | 3720 nM | 
17 | Cc1nc2cnc3ccc(-c4cnc5[nH]ccc5c4)cc3c2n1CC1CCOC1 (centres undefined) |  |  |  | 365 nM |  |  | 450 nM |  | 392 nM

Row | SMILES | IC50 [1] | IC50 [2] | IC50 [3] | IC50 [4] | IC50 [5] | IC50 [6] | IC50 [7] | IC50 [8] | IC50 [9]
18 | Cc1nc2cnc3ccc(-c4cnc5[nH]ccc5c4)cc3c2n1[C@@H](C)c1ccccc1 | 3410 nM | 1050 nM | 1520 nM | 54.1 nM | 2150 nM | 1610 nM | 104 nM | 1620 nM | 78.1 nM
19 | Cc1nc2cnc3ccc(-c4cnc5[nH]ccc5c4)cc3c2n1-c1ccc(N2CCOCC2)cc1 | 1470 nM | 930 nM | 1360 nM | 69.3 nM | 1080 nM | 1020 nM | 156 nM | 940 nM | 114 nM
20 | Cc1nc2cnc3ccc(-c4cnc5[nH]ccc5c4)cc3c2n1[C@@H](C)c1ccc(F)cc1 | 3020 nM | 1610 nM | 1040 nM | 140 nM | 1970 nM | 1710 nM | 203 nM | 3510 nM | 87.4 nM
21 | Cc1nc2cnc3ccc(-c4cnc5[nH]ccc5c4)cc3c2n1-c1ccc(C(C)(C)C#N)cc1 | 1080 nM | 230 nM | 290 nM | 12.5 nM | 370 nM | 310 nM | 21.7 nM | 190 nM | 29.1 nM
22 | Cc1nc2cnc3ccc(-c4cc(C(F)(F)F)cc(C(F)(F)F)c4)cc3c2n1-c1ccc(F)cc1 |  |  |  | > 1000 nM |  |  | > 1000 nM |  | > 1000 nM
23 | Cc1nc2cnc3ccc(-c4cnc5[nH]ccc5c4)cc3c2n1CC1CCOCC1 |  |  |  | 307 nM |  |  | 218 nM |  | 415 nM
24 | Cc1nc2cnc3ccc(-c4cnc5[nH]ccc5c4)cc3c2n1-c1ccc(C(F)(F)F)nc1 | 3210 nM | 1830 nM | 2850 nM | 104 nM | 2360 nM | 1530 nM | 93.1 nM | 3710 nM | 159 nM
25 | Cc1nc2cnc3ccc(-c4ccc(C#N)cc4)cc3c2n1-c1ccc(F)cc1 |  |  |  | 352 nM |  |  | 513 nM |  | > 1000 nM
26 | Cc1nc2cnc3ccc(-c4ccc(O)cc4)cc3c2n1-c1ccc(F)cc1 | 7820 nM | 3620 nM | 2750 nM | 89.2 nM | 3730 nM | 3360 nM | 132 nM | 2160 nM | 244 nM
27 | Cc1nc2cnc3ccc(-c4cnc5[nH]ccc5c4)cc3c2n1-c1ccc(CC#N)cc1 | 4820 nM | 3210 nM | 1790 nM | 139 nM | 5360 nM | 1150 nM | 105 nM | 2760 nM | 84.9 nM
28 | Cc1nc2cnc3ccc(-c4ccc(N)cc4)cc3c2n1-c1ccc(F)cc1 | 6970 nM | 2150 nM | 2320 nM | 68.1 nM | 8750 nM | 1980 nM | 90.3 nM | 3130 nM | 121 nM
29 | CC(=O)c1ccc(-c2ccc3ncc4nc(C)n(-c5ccc(F)cc5)c4c3c2)cc1 |  |  |  | 304 nM |  |  | > 1000 nM |  | 487 nM
30 | Cc1nc2cnc3ccc(-c4ccc(F)cc4)cc3c2n1-c1ccc(F)cc1 |  |  |  | 487 nM |  |  | > 1000 nM |  | 781 nM
31 | Cc1nc2cnc3ccc(-c4cnc(N5CCOCC5)nc4)cc3c2n1-c1ccc(F)cc1 |  |  |  | 463 nM |  |  | > 1000 nM |  | 596 nM
32 | Cc1nc2cnc3ccc(-c4ccc(Cl)cc4)cc3c2n1-c1ccc(F)cc1 |  |  |  | 569 nM |  |  | > 1000 nM |  | > 1000 nM
33 | COc1ccc(-c2ccc3ncc4nc(C)n(-c5ccc(F)cc5)c4c3c2)cc1 |  |  |  | 321 nM |  |  | > 1000 nM |  | > 1000 nM
